Data reported in patent publication US20100028259A1, “USE OF ORGANIC CATION TRANSPORTERS FOR CANCER DIAGNOSIS AND THERAPY” (The Regents of the University of California, priority 2006, published 2010).
Where two headings read alike, the source gives them in different places.

Assays:
[1] = system: six colon cancer cell lines; experiment: MTT drug sensitivity, summary over the six colon cancer cell lines; type: cell-based, human
Description: Cytotoxicity of the platinum-based compounds was measured by MTT (thiazolyl blue tetrazolium bromide) assay. Cells were seeded in 100 μl of the culture medium without any antibiotics in 96-well plates at a predetermined cell density. For HEK 293 cells, poly-D-lysine coated plates were used. […] For the OCT inhibitor studies, the inhibitors (i.e., disopyramide or cimetidine) were added to the medium at a specified concentration immediately before the addition of the platinum-based compounds. After incubation for a specified time period, the drug-containing medium was replaced with fresh, drug-free medium and the incubation was continued for a total of 72 hours (start from the addition of platinum-based compounds). Then, the MTT assay was performed similarly as described in Alley et al., Cancer Res., 48:589-601 (1988). […] The maximal cell growth was the cell growth in the medium without any platinum-based compounds; C is the concentration of the platinum-based compound, and γ is the slope factor.
The resistance factor (RF) due to the presence of cimetidine was defined as the ratio of the IC50 value in the presence of cimetidine to that in the absence of cimetidine.
The cell seeding density was 6,000-, 8,000-, 6,000-, 15,000-12,000- and 4,000 cells/well for HCT116, HT29, RKO, SW620, LS180, and DLD cells, respectively. When cimetidine (1.5 mM) was used, it was added to the wells immediately before the addition of the platinum-based drugs. The resistance factor (RF) was defined as the ratio of the mean IC50 value in the presence to that in the absence of cimetidine. Data are expressed as mean±SD from six measurements, and each measurement was performed in quadruplicate.

MDCK-MOCK cells = experiment: Platinum-DNA adduct formation in MDCK-MOCK cells; type: cell-based, canine
Description: After incubation at 37° C. and 5% CO2 for 2 hours, the cells were washed with ice-cold PBS three times and harvested. The genomic DNA was isolated from the cells and the platinum content associated with DNA was determined by ICP-MS and normalized for DNA content. Data are expressed as mean±SD from a typical experiment performed in triplicate. Two independent experiments were conducted and similar results were obtained.
After incubation, the cells were washed with ice-cold PBS three times and harvested. Genomic DNA was isolated from the harvested cells and the DNA-associated platinum content was determined by ICP-MS and normalized for the DNA content. Data are expressed as mean±SD of three measurements.
The platinum content associated with genomic DNA was determined as described in Samimi et al., Clin. Cancer Res., 10:4661-4669 (2004) with some modifications. Briefly, the cells were grown in 100 mm×20 mm dishes in the culture medium without any antibiotics to over 90% confluence. For HEK 293 cells, poly-D-lysine coated dishes were used. Then, the cells were incubated in the culture medium containing the specified concentrations of the platinum-based compounds at 37° C. in 5% CO2 for 2 hours (or 25 min as specified). In some experiments, phosphate buffer (PB: 1.06 mM KH2PO4, 2.97 mM Na2HPO4, pH 7.4) containing 155 mM NaCl (PB—Cl buffer) or 103 mM Na2SO4 (PB—SO4 buffer) was used instead of the culture medium as specified. For the OCT inhibitor study, the incubation medium (buffer) also contained disopyramide or cimetidine). If PB—Cl or PB—SO4 buffer was used, the cells were washed with the same buffer once before drug incubation. After incubation, the cells were washed with ice-cold PBS, scraped, and pelleted. Genomic DNA was isolated from the cell pellets using the Wizard® Genomic DNA Purification Kit (Promega, Madison, Wis.) following the manufacturer's instructions. Briefly, the cells were lysed with Nuclei Lysis Solution. After RNA digestion and protein precipitation, the lysates were centrifuged and the resulting supernatant was aliquoted. The genomic DNA prepared from two different aliquots of the supernatant was used for platinum and DNA content determination, respectively. For the determination of platinum, the DNA samples were treated with 70% nitric acid at 65° C. and diluted in the same way as described above. The platinum content was analyzed using ICP-MS and the DNA content was measured by absorption spectroscopy.

**Q.** What does the source list for `O=C1[O][Pt]2([NH][C@@H]3CCCC[C@H]3[NH]2)[O]C1=O` [oxaliplatin]?
**A.** IC50 ([1]; absence of cimetidine, read-out: mean±SE of IC50 in the six cell lines, control): 3.88 ± 1.42 µM; IC50 ([1]; cimetidine 1.5 mM, read-out: mean±SE of IC50 in the six cell lines, in the presence of cimetidine): 29.1 ± 10.7 µM; DNA-associated platinum level in MDCK-MOCK (MDCK-MOCK cells; 20 μM, PB—Cl, 25 min): 0.0034±0.00087 pmol/μg DNA; rb in MDCK-MOCK (MDCK-MOCK cells; 20 μM, PB—Cl, 25 min): 1.12±0.29×10^−6; Pt-DNA adduct level in MDCK-MOCK (MDCK-MOCK cells; 20 μM, PB—SO4, 25 min): 0.0032±0.00042 pmol/μg DNA; rb in MDCK-MOCK (MDCK-MOCK cells; 20 μM, PB—SO4, 25 min): 1.05±0.14×10^−6; platinum-DNA adduct level in MDCK-MOCK (MDCK-MOCK cells; 2-hr exposure, oxaliplatin 10 μM, culture medium): 0.0110±0.0010 pmol/μg DNA; effect of disopyramide on platinum-DNA adduct formation in MDCK-MOCK (MDCK-MOCK cells; disopyramide 150 μM): no effect
